The source of these data is article PMC10005301, “Prediction of the n-Octanol/Water Partition Coefficients of Basic Compounds Using Multi-Parameter QSRR Models Based on IS-RPLC Retention Behavior in a Wide pH Range” (Molecules, 2023).

The conditions of data set [1]: for logDpH 7.0: pH 7; for logDpH 8.0: pH 8; for logDpH 9.0: pH 9; for logDpH 10.0: pH 10.
A short description of data set [2]: IS-RPLC retention on silica-based C18 column, logkw by linear solvent strength model. The class given is physicochemical. The conditions noted are these: methanol/20 mmol/L ammonium phosphate buffer, Welch Xtimate C18, 30 °C, 100% aqueous extrapolation.
A short description of data set [3]: logD determined by multi-parameter QSRR models from IS-RPLC logkw. As to conditions: IS-RPLC retention (logkw). The procedure: Multi-parameter QSRR models including logD, logkw, ne, A, and B were established using the multiple linear regression (MLR) method. In the process of linear fitting, ne, A, B, and their different combinations were introduced to optimize the models.
The logD values reported in the literature for these four compounds were calculated using Equation (S3) with corresponding pKa, logP, and pH values.
At each pH, the retention time (tR) of every analyte was determined for at least four different volume fractions (φ) of methanol. All the tR values of the solutes were obtained by averaging the results of at least three independent injections. The tR value was corrected using dual-point retention time correction (DP-RTC). For a detailed description of the process, refer to our previous work. For the different hydrophobicities of the studied compounds, benzene, toluene, and benzyl alcohol were used as anchor compounds in the DP-RTC method. The dead time t0 was determined using uracil. For each solute, the logarithm of k was plotted against φ, and logkw was obtained using the Equation (S1). The logD values of the model compounds were calculated using Equation (S3), and the logD–logkw models were established with Equation (S4). The statistical analysis for the regression model was accomplished using Origin 9.4.

Details of data set [4]: method as in UFZ-LSER database. As to conditions: hydrogen bonding parameter B; ref UFZ-LSER database; cited from earlier work.
The conditions of data set [5]: ref database module of ACD/Labs software, cited from earlier work.
For data set [6] the following is noted: ref database module of ACD/Labs software, cited from earlier work; for pKa: Table 4, verification compounds.
Where [7] appears, read: Table 4, verification compounds.

Where two headings read alike, the source gives them in different places.

Turning to `Nc1ccc(Br)cc1` [4-Bromoaniline], in data set [1], the “logDpH 7.0” value came out at 1.74, the “logDpH 8.0” value is listed as 1.74, the “logDpH 9.0” value worked out at 1.74 and the “logDpH 10.0” value amounted to 1.74. Moreover, in data set [2], the “logkw-pH 7.0” value was 1.91, the “logkw-pH 8.0” value is recorded as 1.98, the “logkw-pH 9.0” value is 1.99 and the “logkw-pH 10.0” value is reported as 1.99. Also, in data set [3] (pH 7), the chromatographic logD – broadly, lipophilicity estimated from chromatographic retention – came out at 1.83. Moreover, the chromatographic logD in data set [3] (pH 8) stood at 1.81. Also, in data set [3] (pH 9), the chromatographic logD is 1.85. In addition, the chromatographic logD in data set [3] (pH 10) amounted to 1.81. In addition, the B in data set [4] is given as 1.19. In data set [5] (setting [7]), the logP (in general, the decadic logarithm of the partition coefficient of the neutral form, usually between octanol and water) is 2.05. Also, in data set [5] (n-octanol/water), the logP is on record as 2.05. Besides, in data set [6], the pKa – broadly, the negative logarithm of the acid dissociation constant – is 3.89 and the pKa1 was 3.89.
For the compound `c1ccc(CNCc2ccccc2)cc1` [Dibenzylamine], in data set [1], the “logDpH 7.0” value is listed as 1.26, the “logDpH 8.0” value is reported as 2.20, the “logDpH 9.0” value is listed as 2.83 and the “logDpH 10.0” value was found to be 3.01. For the same compound, in data set [2], the “logkw-pH 7.0” value is on record as 2.42, the “logkw-pH 8.0” value is 2.99, the “logkw-pH 9.0” value is on record as 3.28 and the “logkw-pH 10.0” value is 4.54. Also, in data set [3] (pH 7), the chromatographic logD came to 1.52. The chromatographic logD in data set [3] (pH 8) came to 2.36. For the same compound, in data set [3] (pH 9), the chromatographic logD was 2.81. Further, the chromatographic logD in data set [3] (pH 10) came to 3. In addition, the B in data set [4] is 1.30. The log partition coefficient (logP) in data set [5] (setting [7]) is on record as 3.03. Also, in data set [5] (n-octanol/water), the logP is listed as 3.03. Further, in data set [6], the pKa is on record as 8.76 and the pKa1 was 8.76.
